28 molecules from patent US7704995B2 (Exelixis, Inc., priority 2003, dated 2010) can be followed below.

Broadly, the IC50 is the concentration needed to halve the response being measured.

The first assay has as its target T1, Chk1 (Homo sapiens, UniProt O14757).
T1 construct: purchased Upstate Biotechnology
T1 sequence (O14757 1-476): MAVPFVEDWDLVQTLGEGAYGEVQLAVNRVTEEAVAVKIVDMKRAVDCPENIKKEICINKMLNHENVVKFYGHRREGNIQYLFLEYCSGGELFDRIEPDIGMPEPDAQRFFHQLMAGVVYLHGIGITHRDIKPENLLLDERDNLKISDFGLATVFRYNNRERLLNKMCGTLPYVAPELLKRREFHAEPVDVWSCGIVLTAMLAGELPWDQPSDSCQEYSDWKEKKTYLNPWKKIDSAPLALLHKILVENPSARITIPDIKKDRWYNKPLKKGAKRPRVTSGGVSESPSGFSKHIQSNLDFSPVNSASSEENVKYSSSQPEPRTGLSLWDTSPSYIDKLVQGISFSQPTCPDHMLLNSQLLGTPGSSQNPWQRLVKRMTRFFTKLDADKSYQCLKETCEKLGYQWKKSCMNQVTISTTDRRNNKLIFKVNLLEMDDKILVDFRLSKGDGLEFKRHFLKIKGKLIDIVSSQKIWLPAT
The experiment in a line: Chk1 kinase assay: incorporation of γ-33P ATP into immobilized myelin basic protein. As to conditions: Table 11, Chk1 only; class symbols A-D; read-out: Chk1 IC50. It is filed as biochemical. Summed up:
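Chk1 (10 nM) or Chk2 (20 nM) phosphorylated plate-immobilized myelin basic protein for 1 h at room temperature in Hepes pH 7.6 buffer with MgCl2, DTT, 1% DMSO, γ-33P ATP plus 10 μM (Chk1) or 30 μM (Chk2) unlabeled ATP. Bound radioactivity counted by scintillation; IC50 determined, Ki derivable from IC50.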
Regarding `Nc1ncc(-c2cccc(NC(=O)c3ccc(-c4cnns4)cc3)c2)nc1C(=O)N[C@H]1CCCNC1` [Example 901, 3-amino-N-[(3S)-piperidin-3-yl]-6-[3-({[4-(1,2,3-thiadiazol-5-yl)phenyl]carbonyl}amino)phenyl]pyrazine-2-carboxamide], the IC50 was below 50 nM.
The same measure, in the same setting: the figure for `Nc1ncc(-c2cccc(C(=O)NCc3cccc(F)c3F)c2)nc1C(=O)N[C@H]1CCCNC1` [Example 1017, 3-amino-6-[3-({[(2,3-difluorophenyl)methyl]amino}carbonyl)phenyl]-N-[(3S)-piperidin-3-yl]pyrazine-2-carboxamide] is below 50 nM.
The same measure, in the same setting: under `Nc1ncc(-c2cccc(CN[C@@H]3c4ccccc4C[C@@H]3O)c2)nc1C(=O)N[C@H]1CCCNC1` [Example 968, 3-amino-6-[3-({[(1R,2S)-2-hydroxy-2,3-dihydro-1H-inden-1-yl]amino}methyl)phenyl]-N-[(3S)-piperidin-3-yl]pyrazin-2-carboxamide] stands below 50 nM; under `Nc1ncc(-c2cccc(C(=O)NCc3ccc(F)c(Br)c3)c2)nc1C(=O)N[C@H]1CCCNC1` [Example 1027, 3-amino-6-[3-({[(3-bromo-4-fluorophenyl)methyl]amino}carbonyl)phenyl]-N-[(3S)-piperidin-3-yl]pyrazine-2-carboxamide], below 50 nM.
On the same count and under the same terms, the figure for `Nc1ncc(-c2cccc(CN[C@H]3CCc4ccccc43)c2)nc1C(=O)NC1CN2CCC1CC2` (stereo partly drawn) [Example 819, 3-amino-N-1-azabicyclo[2.2.2]oct-3-yl-6-(3-{[(1S)-2,3-dihydro-1H-inden-1-ylamino]methyl}phenyl)pyrazine-2-carboxamide] is 50 to 1000 nM.

The same assay, now with this note: Table 11; Chk1 only; read-out: Chk1 IC50.
Consider `Nc1ncc(-c2cccc(CN[C@H]3CCc4ccccc43)c2)nc1-c1nnc(Cc2ccccc2)[nH]1` [Example 555, 5-(3-{[(1S)-2,3-dihydro-1H-inden-1-ylamino]methyl}phenyl)-3-[5-(phenylmethyl)-4H-1,2,4-triazol-3-yl]pyrazin-2-amine], for which the half-inhibitory concentration (IC50) lay in the range of 50 to 1000 nM.
Same read-out and setting: under `CNC(=O)c1nc(-c2cccc(CN[C@H]3C[C@H]3c3ccccc3)c2)cnc1N` [Example 440, 3-amino-N-methyl-6-[3-({[(1S,2S)-2-phenylcyclopropyl]amino}methyl)phenyl]pyrazine-2-carboxamide] stands 50 to 1000 nM.
The same measure, in the same setting: the figure for `COc1ccc(C(=O)c2nc(-c3cccc(C(=O)NCc4ccccc4)c3)cnc2N)c(OC)c1` [Example 588, 3-(5-amino-6-{[2,4-bis(methyloxy)phenyl]carbonyl}pyrazin-2-yl)-N-(phenylmethyl)benzamide] is at least 10000 nM.
Still for that read-out and setting: under `CNC(=O)c1nc(-c2cccc(CNCc3cc(-c4cccs4)ccc3F)c2)cnc1N` [Example 457, 3-amino-6-{3-[({[2-fluoro-5-(2-thienyl)phenyl]methyl}amino)methyl]phenyl}-N-methylpyrazine-2-carboxamide] stands 50 to 1000 nM; under `Nc1ncc(-c2cccc(CO)c2)nc1-c1nc(C2CCCNC2)n[nH]1` (stereo not shown) [Example 625, {3-[5-amino-6-(3-piperidin-3-yl-1H-1,2,4-triazol-5-yl)pyrazin-2-yl]phenyl}methanol], 50 to 1000 nM; under `C/C(=N\Nc1ccc(C(=O)O)cc1)c1nc(-c2cccc(C(=O)NCc3ccccc3)c2)cnc1N` [Example 627, 4-((2E)-2-{1-[3-amino-6-(3-{[(phenylmethyl)amino]carbonyl}phenyl)pyrazin-2-yl]ethylidene}hydrazino)benzoic acid], 1000 to 10000 nM.
In the case of `Nc1ncc(-c2cccc(C(=O)N[C@H]3CCc4ccccc43)c2)nc1C(=O)N[C@@H]1CCCNC1` [Example 765, 3-amino-6-(3-{[(1S)-2,3-dihydro-1H-inden-1-ylamino]carbonyl}phenyl)-N-[(3R)-piperidin-3-yl]pyrazine-2-carboxamide], the IC50 was below 50 nM.
On the same count and under the same terms, under `Nc1ncc(-c2cccc(C(=O)NCc3ccccc3)c2)nc1C(=O)NC1CCCCC1NC(=O)c1nc(-c2cccc(C(=O)NCc3ccccc3)c2)cnc1N` (stereo not shown) [Example 660, N,N′-cyclohexane-1,2-diylbis[3-amino-6-(3-{[(phenylmethyl)amino]carbonyl}phenyl)pyrazine-2-carboxamide]] stands at least 10000 nM; under `C[C@H](NC(=O)c1cccc(-c2cnc(N)c(C(=O)N[C@H]3CCN(C(=O)OC(C)(C)C)C3)n2)c1)c1ccccc1` [Example 713, 1,1-dimethylethyl (3S)-3-[({3-amino-6-[3-({[(1S)-1-phenylethyl]amino}carbonyl)phenyl]pyrazin-2-yl}carbonyl)amino]pyrrolidine-1-carboxylate], 1000 to 10000 nM; under `CNC(=O)c1nc(-c2cccc(CNCc3ccc(-c4ccccc4)cc3F)c2)cnc1N` [Example 449, 3-amino-6-[3-({[(3-fluorobiphenyl-4-yl)methyl]amino}methyl)phenyl]-N-methylpyrazine-2-carboxamide], 50 to 1000 nM.

Still in this assay, the particulars now being: read-out: Chk1 IC50.
`CNC(=O)c1nc(-c2cccc(NCCc3ccccc3)c2)cnc1N` [Example 410, 3-amino-N-methyl-6-{3-[(2-phenylethyl)amino]phenyl}pyrazine-2-carboxamide]: the IC50 fell in the range of 50 to 1000 nM.
As for `CNC(=O)c1nc(-c2ccc(NC(C)=O)cc2)cnc1N` [Example 63, 6-[4-(acetylamino)phenyl]-3-amino-N-methylpyrazine-2-carboxamide], the IC50 is 1000 to 10000 nM.
Same read-out and setting: under `CNC(=O)c1nc(-c2cccc(C(=O)NCc3cc(OC)cc(OC)c3)c2)cnc1N` [Example 254, 3-amino-6-{3-[({[3,5-bis(methyloxy)phenyl]methyl}amino)carbonyl]phenyl}-N-methylpyrazine-2-carboxamide] stands 50 to 1000 nM.
Same read-out and setting: the figure for `CNC(=O)c1nc(-c2cccc(CNC(=O)c3ccccc3)c2)cnc1N` [Example 308, 3-amino-N-methyl-6-(3-{[(phenylcarbonyl)amino]methyl}phenyl)pyrazine-2-carboxamide] is 50 to 1000 nM.
Still for that read-out and setting: the figure for `CNC(=O)c1nc(-c2cccc(OCCN3CCC(C)CC3)c2)cnc1N` [Example 175, 3-amino-N-methyl-6-(3-{[2-(4-methylpiperidin-1-yl)ethyl]oxy}phenyl)pyrazine-2-carboxamide] is 1000 to 10000 nM.
As to `CNC(=O)c1nc(-c2cccc(C(=O)NC(C)(C)c3ccccc3)c2)cnc1N` [Example 225, 3-amino-N-methyl-6-(3-{[(1-methyl-1-phenylethyl)amino]carbonyl}phenyl)pyrazine-2-carboxamide], the IC50 was 1000 to 10000 nM.
The same measure, in the same setting: the figure for `CNC(=O)c1nc(-c2cccc(C(=O)NCCc3ccccc3Cl)c2)cnc1N` [Example 129, 3-amino-6-[3-({[2-(2-chlorophenyl)ethyl]amino}carbonyl)phenyl]-N-methylpyrazine-2-carboxamide] is 50 to 1000 nM.
Still for that read-out and setting: the figure for `CNC(=O)c1nc(-c2cccc(C(=O)NCC3CCNCC3)c2)cnc1N` [Example 135, 3-amino-N-methyl-6-(3-{[(piperidin-4-ylmethyl)amino]carbonyl}phenyl)pyrazine-2-carboxamide] is 50 to 1000 nM; for `CNC(=O)c1nc(-c2cccc(CNCc3ccccc3)c2)cnc1N` [Example 315, 3-amino-N-methyl-6-(3-{[(phenylmethyl)amino]methyl}phenyl)pyrazine-2-carboxamide] it is 50 to 1000 nM; for `CNC(=O)c1nc(-c2cccc(C(=O)NCc3ccc(N4CCOCC4)cc3)c2)cnc1N` [Example 343] it is 50 to 1000 nM.
On to `CNC(=O)c1nc(-c2cccc(C(=O)NCc3cc(Cl)ccc3F)c2)cnc1N` [Example 277, 3-amino-6-[3-({[(5-chloro-2-fluorophenyl)methyl]amino}carbonyl)phenyl]-N-methylpyrazine-2-carboxamide], for which the half-maximal inhibitory concentration (IC50) lay in the range of 50 to 1000 nM.
The same measure, in the same setting: the figure for `CNC(=O)c1nc(-c2cccc(CNCc3ccc(N)cc3)c2)cnc1N` [Example 396, 3-amino-6-[3-({[(4-aminophenyl)methyl]amino}methyl)phenyl]-N-methylpyrazine-2-carboxamide] is 50 to 1000 nM.
Consider `CNC(=O)c1nc(-c2cc(C(=O)NCc3ccccc3)ccc2F)cnc1N` [Example 368, 3-amino-6-(2-fluoro-5-{[(phenylmethyl)amino]carbonyl}phenyl)-N-methylpyrazine-2-carboxamide], for which the IC50 was in the range of 50 to 1000 nM.
